Test results as given in ChEMBL document CHEMBL4184156, “Repurposing Hsp90 inhibitors as antibiotics targeting histidine kinases” (Bioorg Med Chem Lett, 2017).
Converted amounts (≈) assume the structure as drawn. The source made the active and inactive calls. No cut-off for these calls is given here.

Legend:
[1] = Hemolytic activity against sheep RBC at 0.5 mM after 30 mins relative to control; type: ADME, cell-based, Ovis aries, Erythrocyte; details: sheep red blood cells (erythrocytes), read-out: Activity
[2] = biological target: T1, Cell cycle histidine kinase CckA (Caulobacter vibrioides, UniProt Q9X688); test: Competitive inhibition of Caulobacter vibrioides full length wild type cell cycle histidine kinase CckA deltaTM Escherichia coli BL21-AI in presence of varying levels of ATP measured every 60 secs for 2 hrs by Lineweaver-Burk plot analysis
T1 sequence (Q9X688 whole entry): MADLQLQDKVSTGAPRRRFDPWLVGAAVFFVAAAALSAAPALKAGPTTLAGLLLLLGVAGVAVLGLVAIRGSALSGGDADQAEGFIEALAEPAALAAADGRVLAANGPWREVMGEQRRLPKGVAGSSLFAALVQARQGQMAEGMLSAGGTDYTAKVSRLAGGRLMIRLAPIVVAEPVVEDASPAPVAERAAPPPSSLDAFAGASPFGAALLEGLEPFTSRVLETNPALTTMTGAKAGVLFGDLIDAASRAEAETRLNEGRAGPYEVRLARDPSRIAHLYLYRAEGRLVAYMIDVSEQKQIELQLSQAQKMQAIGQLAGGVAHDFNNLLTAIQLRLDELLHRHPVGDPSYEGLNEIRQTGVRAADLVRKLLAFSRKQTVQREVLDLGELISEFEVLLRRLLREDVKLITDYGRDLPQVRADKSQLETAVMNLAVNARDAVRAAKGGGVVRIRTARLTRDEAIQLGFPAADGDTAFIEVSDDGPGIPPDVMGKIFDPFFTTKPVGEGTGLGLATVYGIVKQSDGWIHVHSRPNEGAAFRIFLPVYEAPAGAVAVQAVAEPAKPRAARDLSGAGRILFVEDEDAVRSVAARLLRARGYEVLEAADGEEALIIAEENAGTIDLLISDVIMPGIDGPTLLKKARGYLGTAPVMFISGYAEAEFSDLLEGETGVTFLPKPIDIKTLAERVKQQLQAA

[3] = biological target: Cell cycle histidine kinase CckA (Caulobacter vibrioides, UniProt Q9X688); test: Inhibition of recombinant Caulobacter vibrioides cell cycle histidine kinase CckA deltaTM mutant DHp domain (70 to 691 residues) expressed in Escherichia coli in presence of varying levels of ATP measured every 60 secs for 2 hrs by PK/LDH enzyme coupled assay
[4] = biological target: T2, Virulence sensor histidine kinase PhoQ (Salmonella typhimurium (strain LT2 / SGSC1412 / ATCC 700720), UniProt P0DM80); test: Inhibition of recombinant Salmonella typhimurium N-terminal His6-SUMO-tagged DHp-catalytic domain PhoQ (257 to 487 residues) autophosphorylation expressed in Escherichia coli BL21 (DE3) preincubated for 10 mins followed by [gamma-32P]-ATP addition after 30 mins by phosphotransferase dot blot assay; design: species or system Salmonella enterica subsp. enterica serovar Typhimurium
T2 sequence (P0DM80 whole entry): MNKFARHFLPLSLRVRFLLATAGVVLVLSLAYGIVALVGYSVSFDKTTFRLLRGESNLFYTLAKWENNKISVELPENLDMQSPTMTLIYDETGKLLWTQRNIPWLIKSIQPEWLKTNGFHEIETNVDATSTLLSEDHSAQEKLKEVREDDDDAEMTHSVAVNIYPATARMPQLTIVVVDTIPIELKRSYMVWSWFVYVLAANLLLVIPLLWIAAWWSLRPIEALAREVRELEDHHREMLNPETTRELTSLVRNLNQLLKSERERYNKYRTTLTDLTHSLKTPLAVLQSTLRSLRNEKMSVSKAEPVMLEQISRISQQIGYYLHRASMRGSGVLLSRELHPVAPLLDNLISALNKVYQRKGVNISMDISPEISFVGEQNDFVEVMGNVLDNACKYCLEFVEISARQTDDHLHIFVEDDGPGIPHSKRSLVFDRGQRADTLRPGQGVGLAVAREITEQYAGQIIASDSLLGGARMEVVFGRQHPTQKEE

[5] = biological target: T3, Virulence sensor histidine kinase PhoQ (Salmonella typhimurium (strain LT2 / SGSC1412 / ATCC 700720)) (UniProt P0DM80); test: Inhibition of recombinant Salmonella typhimurium N-terminal His6-SUMO-tagged DHp-catalytic domain PhoQ (257 to 487 residues) autophosphorylation expressed in Escherichia coli BL21(DE3) at 500 uM preincubated for 10 mins followed by [gamma-32P]-ATP addition after 30 mins by phosphotransferase dot blot assay relative to control; design: scale not given: the % may be the effect or the level left; details: Salmonella enterica subsp. enterica serovar Typhimurium
T3 sequence (whole entry): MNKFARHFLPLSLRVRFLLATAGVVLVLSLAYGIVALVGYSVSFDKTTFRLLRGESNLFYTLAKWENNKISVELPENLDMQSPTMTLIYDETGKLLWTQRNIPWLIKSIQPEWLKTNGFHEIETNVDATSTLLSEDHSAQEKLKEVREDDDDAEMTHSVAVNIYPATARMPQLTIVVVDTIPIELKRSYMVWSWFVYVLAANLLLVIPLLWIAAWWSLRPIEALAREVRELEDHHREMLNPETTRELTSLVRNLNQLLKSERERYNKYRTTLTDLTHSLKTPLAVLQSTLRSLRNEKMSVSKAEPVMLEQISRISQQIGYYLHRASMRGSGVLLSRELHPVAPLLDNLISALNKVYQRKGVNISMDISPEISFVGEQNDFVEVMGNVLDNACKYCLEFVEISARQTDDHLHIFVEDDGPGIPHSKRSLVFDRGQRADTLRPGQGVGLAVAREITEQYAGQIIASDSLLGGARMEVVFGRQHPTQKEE

[6] = biological target: T4, Cell cycle histidine kinase CckA (Caulobacter vibrioides) (UniProt Q9X688); test: Binding affinity to recombinant Caulobacter vibrioides cell cycle histidine kinase CckA delta 3 mutant DHp domain (190 to 562 residues) expressed in Escherichia coli assessed as change in metlting temperature at 30 uM after 2 mins by SYPRO orange dye based DSF assay
T4 sequence (whole entry): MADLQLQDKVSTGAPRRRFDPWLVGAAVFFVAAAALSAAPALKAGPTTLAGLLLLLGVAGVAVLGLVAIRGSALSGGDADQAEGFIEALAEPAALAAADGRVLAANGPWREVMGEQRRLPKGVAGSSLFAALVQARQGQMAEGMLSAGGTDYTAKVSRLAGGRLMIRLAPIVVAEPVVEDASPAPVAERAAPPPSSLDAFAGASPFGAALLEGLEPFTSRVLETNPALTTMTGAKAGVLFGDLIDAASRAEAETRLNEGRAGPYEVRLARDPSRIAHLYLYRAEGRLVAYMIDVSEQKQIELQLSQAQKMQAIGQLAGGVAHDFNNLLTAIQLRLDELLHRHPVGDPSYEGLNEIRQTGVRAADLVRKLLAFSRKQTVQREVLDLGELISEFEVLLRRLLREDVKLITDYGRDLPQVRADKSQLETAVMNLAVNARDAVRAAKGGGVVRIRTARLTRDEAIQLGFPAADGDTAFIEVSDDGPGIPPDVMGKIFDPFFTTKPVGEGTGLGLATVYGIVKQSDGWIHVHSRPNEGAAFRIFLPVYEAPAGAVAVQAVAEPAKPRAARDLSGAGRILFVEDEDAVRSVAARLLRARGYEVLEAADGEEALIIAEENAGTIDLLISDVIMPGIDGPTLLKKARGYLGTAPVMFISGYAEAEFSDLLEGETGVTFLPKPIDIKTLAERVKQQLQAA

[7] = biological target: T3, Virulence sensor histidine kinase PhoQ (Salmonella typhimurium (strain LT2 / SGSC1412 / ATCC 700720)); test: Inhibition of recombinant Salmonella typhimurium N-terminal His6-SUMO-tagged PhoQ (257 to 487 residues) expressed in Escherichia coli BL21 (DE3) assessed as enzyme aggregation at 800 uM after 30 mins by native-PAGE analysis; details: Salmonella enterica subsp. enterica serovar Typhimurium
[8] = tested on: Caulobacter vibrioides; test: Antibacterial activity against Caulobacter crescentus NA1000 after 24 hrs by broth dilution method; type: functional; details: NA1000, 24 h
[9] = biological target: T5, Histidine protein kinase DivJ (Caulobacter vibrioides (strain ATCC 19089 / CB15) (Caulobactercrescentus)) (UniProt Q03228); test: Inhibition of recombinant Caulobacter vibrioides N-terminal His6-tagged DHp-catalytic domain DivJ (188 to 585 residues) autophosphorylation expressed in Escherichia coli BL21(DE3) at 500 uM preincubated for 10 mins followed by [gamma-32P]-ATP addition after 15 mins by phosphotransferase dot blot assay relative to control; design: scale not given: the % may be the effect or the level left
T5 sequence (whole entry): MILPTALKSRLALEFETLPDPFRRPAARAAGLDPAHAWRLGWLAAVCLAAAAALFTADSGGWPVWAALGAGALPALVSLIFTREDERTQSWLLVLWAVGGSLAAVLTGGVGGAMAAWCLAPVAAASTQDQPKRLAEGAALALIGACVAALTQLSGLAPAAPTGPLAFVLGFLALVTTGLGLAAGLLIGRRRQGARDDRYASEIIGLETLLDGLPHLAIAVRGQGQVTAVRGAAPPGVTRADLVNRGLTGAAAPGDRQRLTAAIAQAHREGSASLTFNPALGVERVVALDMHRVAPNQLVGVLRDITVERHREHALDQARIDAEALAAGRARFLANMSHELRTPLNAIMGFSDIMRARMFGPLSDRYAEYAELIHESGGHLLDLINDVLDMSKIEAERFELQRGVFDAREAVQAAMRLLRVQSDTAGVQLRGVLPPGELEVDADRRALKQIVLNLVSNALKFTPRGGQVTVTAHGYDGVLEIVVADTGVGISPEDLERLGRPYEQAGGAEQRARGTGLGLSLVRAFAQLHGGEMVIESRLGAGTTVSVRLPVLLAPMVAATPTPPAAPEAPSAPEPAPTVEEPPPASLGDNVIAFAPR

[10] = biological target: T3, Virulence sensor histidine kinase PhoQ (Salmonella typhimurium (strain LT2 / SGSC1412 / ATCC 700720)); test: Inhibition of recombinant Salmonella typhimurium N-terminal His6-SUMO-tagged PhoQ (257 to 487 residues) expressed in Escherichia coli BL21 (DE3) assessed as enzyme aggregation at 400 uM after 30 mins by native-PAGE analysis; details: Salmonella enterica subsp. enterica serovar Typhimurium
[11] = biological target: T5, Histidine protein kinase DivJ (Caulobacter vibrioides (strain ATCC 19089 / CB15) (Caulobactercrescentus)); test: Inhibition of recombinant Caulobacter vibrioides N-terminal His6-tagged DHp-catalytic domain DivJ (188 to 585 residues) expressed in Escherichia coli BL21 (DE3) at 800 uM preincubated for 10 mins followed by [gamma-32P]-ATP addition after 15 mins by phosphotransferase dot blot assay
[12] = tested on: Escherichia coli; test: Antibacterial activity against Escherichia coli DC2 after 24 hrs by broth dilution method; type: functional; details: DC2, 24 h
[13] = biological target: T5, Histidine protein kinase DivJ (Caulobacter vibrioides (strain ATCC 19089 / CB15) (Caulobactercrescentus)); test: Inhibition of recombinant Caulobacter vibrioides N-terminal His6-tagged DHp-catalytic domain DivJ (188 to 585 residues) expressed in Escherichia coli BL21 (DE3) at 400 uM preincubated for 10 mins followed by [gamma-32P]-ATP addition after 15 mins by phosphotransferase dot blot assay
[14] = tested on: Bacillus subtilis; test: Antibacterial activity against Bacillus subtilis YB886 after 24 hrs by broth dilution method; type: functional; details: YB886, 24 h
[15] = tested on: Histidine protein kinase DivJ (Caulobacter vibrioides); test: Inhibition of recombinant Caulobacter vibrioides N-terminal His6-tagged catalytic domain DivJ (188 to 585 residues) expressed in Escherichia coli BL21 (DE3) assessed as enzyme aggregation at 400 uM after 30 mins by native-PAGE analysis
[16] = tested on: Escherichia coli; test: Antimicrobial activity against Escherichia coli DC2 after 20 hrs by Mueller-Hinton Broth microdilution method; type: functional; details: DC2, 20 h
[17] = biological target: T6, Sensor protein kinase WalK family protein (Streptococcus pneumoniae PCS8203, UniProt A0A0H2UQD0); test: Inhibition of Streptococcus pneumoniae VicK preincubated for 30 mins followed by [gamma-33P]ATP addition after 30 mins by SDS-PAGE method
T6 sequence (A0A0H2UQD0 whole entry): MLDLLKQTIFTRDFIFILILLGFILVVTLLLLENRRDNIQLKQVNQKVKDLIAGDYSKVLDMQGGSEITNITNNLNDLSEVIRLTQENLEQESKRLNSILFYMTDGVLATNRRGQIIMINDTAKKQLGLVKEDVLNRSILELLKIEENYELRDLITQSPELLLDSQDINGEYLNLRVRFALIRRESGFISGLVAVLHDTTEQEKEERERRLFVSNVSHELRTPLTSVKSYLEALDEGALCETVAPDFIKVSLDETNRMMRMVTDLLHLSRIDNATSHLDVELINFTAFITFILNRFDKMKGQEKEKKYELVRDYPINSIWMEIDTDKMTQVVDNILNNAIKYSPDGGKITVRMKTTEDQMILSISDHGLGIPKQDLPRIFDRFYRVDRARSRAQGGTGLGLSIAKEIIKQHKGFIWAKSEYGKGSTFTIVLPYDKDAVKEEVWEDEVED

[18] = tested on: Bacillus subtilis; test: Antimicrobial activity against Bacillus subtilis 3610 after 20 hrs by Mueller-Hinton Broth microdilution method; type: functional; details: subsp. subtilis str. NCIB 3610, 20 h

| SMILES | Activity [5] [%] | ΔTm [6] [°C] | MIC [8] [µM] | Activity [9] [%] | inhibition [10] | MIC [12] [µM] | MIC [14] [µM] | also measured |
| --- | --- | --- | --- | --- | --- | --- | --- | --- |
| COc1ccc(-c2c(-c3cc(Cl)c(O)cc3O)n[nH]c2C)cc1 | – | – | – | – | – | – | – | hemolysis at 0.5 h, 500 µM [1]: 3%; Ki [2]: 3.8 µM; IC50 [3]: 12.3 to 14 µM; IC50 [4]: 238 µM |
| CCc1cc(-c2[nH]nc(C)c2-c2ccc3c(c2)OCCO3)c(O)cc1O | 9 | 4 | 150 to 225 (≈ 52.9 to 79.3 µg/mL) | 70 | inactive | 37.5 to 75 (≈ 13.2 to 26.4 µg/mL) | 112 (≈ 39.6 µg/mL) | inhibition [7]: inactive; inhibition [11]: Active; inhibition [13]: inactive |
| COc1ccc(-c2c(C)n[nH]c2-c2cc(Cl)c(O)cc2O)cc1 | 66 | 5 | 225 (≈ 74.4 µg/mL) | 118 | inactive | 37.5 to 75 (≈ 12.4 to 24.8 µg/mL) | 150 to 225 (≈ 49.6 to 74.4 µg/mL) | inhibition [15]: inactive |
| Nc1nc2ccc(Oc3ccc4nc(N)sc4c3)cc2s1 | – | – | – | – | – | – | – | MIC [16]: 32 to 64 µg/mL (≈ 102 to 204 µM); IC50 [17]: 75 µM; MIC [18]: 49 to 64 µg/mL (≈ 156 to 204 µM) |
